The values that follow come from patent publication US7238716B2, “Alkanoic acid derivatives process for their production and use thereof” (Takeda Pharmaceuticals Company Limited, priority 2000, dated 2007).

pEC50: −log10 of the molar value. Like-named read-outs stand apart in the source and are kept apart here.

For series [1], the target named is T1, PPARγ-RXRα heterodimer (Homo sapiens, UniProt P37231).
T1 construct: expressed in transfected cells; host or cells: CHO-K1
T1 sequence (P37231 1-477 isoform P37231-2): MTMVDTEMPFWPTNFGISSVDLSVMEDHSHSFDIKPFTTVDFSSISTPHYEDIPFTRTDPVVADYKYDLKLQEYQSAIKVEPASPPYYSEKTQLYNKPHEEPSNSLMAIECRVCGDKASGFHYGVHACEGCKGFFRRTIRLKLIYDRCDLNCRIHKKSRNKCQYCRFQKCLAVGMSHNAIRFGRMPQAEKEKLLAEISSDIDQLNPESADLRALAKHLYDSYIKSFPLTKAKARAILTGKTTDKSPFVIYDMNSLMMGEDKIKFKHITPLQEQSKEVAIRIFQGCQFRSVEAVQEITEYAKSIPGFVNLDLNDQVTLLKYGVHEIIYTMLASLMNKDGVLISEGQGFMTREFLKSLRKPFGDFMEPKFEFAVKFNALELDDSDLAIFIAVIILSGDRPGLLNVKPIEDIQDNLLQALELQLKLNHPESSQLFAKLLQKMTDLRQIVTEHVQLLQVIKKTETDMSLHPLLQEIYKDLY
T1 sequence (P19793 1-462 partner): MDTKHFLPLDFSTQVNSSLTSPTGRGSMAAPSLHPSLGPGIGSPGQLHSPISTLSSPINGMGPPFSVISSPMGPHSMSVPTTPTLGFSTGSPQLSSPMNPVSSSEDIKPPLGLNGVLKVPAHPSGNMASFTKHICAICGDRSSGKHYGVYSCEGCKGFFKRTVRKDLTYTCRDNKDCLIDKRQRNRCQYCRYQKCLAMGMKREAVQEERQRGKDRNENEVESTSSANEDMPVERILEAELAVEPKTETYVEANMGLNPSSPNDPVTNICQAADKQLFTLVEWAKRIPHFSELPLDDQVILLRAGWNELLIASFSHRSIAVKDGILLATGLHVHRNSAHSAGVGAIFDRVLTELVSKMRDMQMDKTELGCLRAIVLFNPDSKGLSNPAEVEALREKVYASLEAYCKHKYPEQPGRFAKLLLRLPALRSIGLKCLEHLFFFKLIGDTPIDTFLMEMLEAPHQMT
As to the kind of experiment: PPARγ-RXRα heterodimer ligand activity, luciferase reporter in PPARγ:RXRα:4ERPP/CHO-K1 cells (Test Example 3). Type of series: cell-based. The settings on record: concentration for 50% of the maximum fold induction of luciferase activity; 48 hours, CHO-K1 cells. As for the experimental part: A PPARγ:RXRα:4ERPP/CHO-K1 cells obtained in Reference Example 5 described later were cultured in HAM F12 medium (produced by NISSUI SEIYAKU) containing 10% Fetal bovine serum (produced by Life Technologies, Inc., USA) and then inoculated to a 96-well white plate (produced by Corning Costar Corporation, USA) at the density of 2×10^4 cells/well, and cultured in a CO2 gas incubator at 37° C. overnight.
After washing the 96 well white plate with PBS (Phosphate-buffered saline), 90 μl of HAM F12 medium containing 0.1% fatty acid-free bovine serum albumin (BSA) and 10 μl of test compound were added, which was cultured in a CO2 gas incubator at 37° C. for 48 hours. After removing the medium, 40 μl of PIKKAGENE 7.5 (produced by Wako Pure Chemical Industries, Ltd.) was added. After stirring, the luciferase activity was determined using Lumistar (produced by BMG Labtechnologies GmbH, Germany).
A fold induction was calculated based on the luciferase activity of each test compound by taking the luciferase activity in the test compound non administration group as 1. The values of the test compound, concentration and the fold induction were analyzed using PRISM 2.01 (produced by GraphPad Software Inc. USA) to calculate the EC50 values, the effective concentration of a test compound for 50% of the maximum fold induction.
After a CHO-K1 cell cultured in a 750 ml tissue culture flask (produced by Corning-Costar Corporation, USA) containing HAM F12 medium (produced by NISSUI SEIYAKU) supplemented with 10% Fetal Bovine Serum (produced by Life Technologies, Inc., USA) was scraped by treating with 0.5 g/L trypsin-0.2 g/L EDTA (ethylenediaminetetraacetic acid) (produced by Life Technologies, Inc., USA), the cell was washed with PBS (phosphate buffered saline) (produced by Life Technologies, Inc., USA), centrifuged (1000 rpm, 5 minutes), and then suspended in PBS. Subsequently, a DNA was introduced into the cell under the condition shown below using GENE PULSER (produced by Bio-Rad Laboratories, USA).
Namely, to a cuvette having a 0.4 cm gap, added were 8×10^6 cells and 10 μg of plasmid pVgRXR2-hPPARγ obtained in Reference Example 3 and 10 μg of reporter plasmid pGL3-4ERPP-TK neo obtained in Reference Example 4, which was subjected to electroporation at the voltage of 0.25 kV under the capacitance of 960 μF. Subsequently, the cell was transferred into a HAM F12 medium containing 10% Fetal Bovine. Serum and cultured for 24 hours. Then the cell was scraped again and centrifuged, and then suspended in HAM F12 medium containing 10% Fetal Bovine Serum supplemented with 500 μg/ml of GENETICIN (produced by Life Technologies, Inc., USA) and 250 μg/ml of ZEOCIN (produced by Invitrogen, USA). The suspension was diluted to the density of 10^4 cells/ml, and inoculated to a 96-well plate (produced by Corning Costar Corporation, USA), which was cultured in a CO2 gas incubator at 37° C., whereby obtaining a GENETICIN- and ZEOCIN-resistant transformant.
Subsequently, after the transformant cell line thus obtained was cultured in a 24-well plate (produced by Corning Costar Corporation, USA), selected was a cell line, PPARγ:RXRα:4ERPP/CHO-K1 cell, in which the luciferase was expressed and induced by addition of 10 μM pioglitazone hydrochloride.
Background: In a reporter assay the amount or activity of a reporter protein is the signal.

For series [2], the system named is KKAY mice. As to the kind of experiment: Hypoglycemic and hypolipidemic actions in mice (Test Example 1). The settings on record: Mus musculus, po, 96 h, 0.005% in powdery diet, four days. Type of series: in vivo. From the text:
Test compounds were mixed in a powdery diet (CE-2, Japan Clea) at the concentration of 0.01% (compounds of Examples 7, 26, 29, 32) or 0.005% (compounds of Examples 1, 11, 15, 18, 24, 36, 37, 41, 48, 50, 51, 52, 58, 62, 79, 83, 88, 90, 91, 92, 93, 97, 107, 110, 115, 119, 122, 125, 129 and 130), and freely given to KKAY mice (11 to 12 weeks old, 5 mice in a group), a model of type 2 diabetes mellitus, for four days. During this period, water was given freely. Blood was sampled from orbital venous plexus, and glucose and triglyceride levels in plasma separated from blood were determined enzymatically using L type Wako Glu2 (Wako Pure Chemical Industries, Ltd.) or L type Wako TG.H (Wako Pure Chemical Industries, Ltd.), respectively.
In the Table, “hypoglycemic action (%)” means a percent reduction (%) of the glucose level in the test compound administration group when that of the test compound non-administration group is taken as 100%. In addition, the “hypolipidemic action (%)” means a percent reduction (%) of the triglyceride level in the test compound administration group when that of the test compound non-administration group is taken as 100%.

Setting [3] is: percent reduction of plasma glucose level vs non-administration group, read-out: hypoglycemic action (%).
Setting [4] is: percent reduction of plasma triglyceride level vs non-administration group, read-out: hypolipidemic action (%).

`CCCc1oc(-c2ccccc2)nc1COc1ccc(COc2ccccc2CC(=O)O)cc1` [Example 85, 2-[2-[4-[(2-phenyl-5-propyl-4-oxazolyl)methoxy]benzyloxy]phenyl]acetic acid] returned a melting point of 129 to 130 °C. This compound showed a pEC50 in series [1] of 6.59.

As to `Cc1oc(-c2ccccc2)nc1COc1cncc(COc2cccc(CC(=O)O)c2)c1` [Example 78, 2-[3-[5-[(5-methyl-2-phenyl-4-oxazolyl)methoxy]-3-pyridylmethoxy]phenyl]acetic acid], the melting point lay in the range of 143 to 144 °C. The pEC50 in series [1] was 6.72.

For the compound `Cc1oc(-c2ccco2)nc1COc1cc(COc2cccc(CC(=O)O)c2)ccn1` [Example 90], the melting point was in the range of 136 to 137 °C. Also, the inhibition in vivo at 0.005 % in series [2] (setting [3]) came to 30%. For the same compound, the inhibition in vivo at 0.005 % in series [2] (setting [4]) came out at 40%. The compound further showed a pEC50 in series [1] of 7.28.

The compound `Cc1oc(-c2ccccc2)nc1COc1ccc(OCc2ncccc2CC(=O)O)cc1` [Example 125, 2-[2-[[4-[(5-methyl-2-phenyl-4-oxazolyl)methoxy]phenoxy]methyl]-3-pyridyl]acetic acid] showed a melting point of 126 to 127 °C. Besides, the inhibition in vivo at 0.005 % in series [2] (setting [3]) worked out at 41%. The inhibition in vivo at 0.005 % in series [2] (setting [4]) was determined as 40%. The same compound had a negative logarithm of the EC50 (pEC50) in series [1] of 6.89.

The compound `Cc1sc(-c2ccccc2)nc1COc1cc(COc2ncccc2CC(=O)O)on1` [Example 115, 2-[2-[[3-[(5-methyl-2-phenyl-4-thiazolyl)methoxy]-5-isoxazolyl]methoxy]-3-pyridyl]acetic acid] came in with a melting point of 109 to 110 °C. Also, the inhibition in vivo at 0.005 % in series [2] (setting [3]) amounted to 52%. In addition, the inhibition in vivo at 0.005 % in series [2] (setting [4]) is 87%. This compound also gave a negative logarithm of the EC50 (pEC50) in series [1] of 7.15.

`Cc1oc(-c2ccccc2)nc1CCc1nc(COc2cccc(CC(=O)O)c2)co1` [Example 101, 2-[3-[[2-[2-(5-methyl-2-phenyl-4-oxazolyl)ethyl]-4-oxazolyl]methoxy]phenyl]acetic acid]: the melting point lay within 127 to 128 °C. The same compound gave a negative-log EC50 (pEC50) in series [1] of 7.37.

The compound `Cc1oc(-c2ccccc2)nc1CCc1nc(COc2ccccc2CC(=O)O)cs1` [Example 103, 2-[2-[[2-[2-(5-methyl-2-phenyl-4-oxazolyl)ethyl]-4-thiazolyl]methoxy]phenyl]acetic acid] gave a melting point of 152 to 153 °C. The compound also showed a pEC50 in series [1] of 6.62.

In the case of `CCCc1ccc(OCc2ccc(OCc3nc(-c4ccccc4)oc3C)cc2)c(CC(=O)O)c1` [Example 83, 2-[2-[4-[(5-methyl-2-phenyl-4-oxazolyl)methoxy]benzyloxy]-5-propylphenyl]acetic acid], the melting point lay in the range of 116 to 117 °C. Moreover, in series [2] (setting [3]), the inhibition in vivo at 0.005 % was determined as 48%. In series [2] (setting [4]), the inhibition in vivo at 0.005 % came to 43%. The negative logarithm of the EC50 (pEC50) in series [1] was 6.96.

`Cc1oc(-c2ccccc2)nc1COc1cc(COc2cccc(CC(=O)O)c2)on1` [Example 81, 2-[3-[3-(5-methyl-2-phenyl-4-oxazolylmethoxy)-5-isoxazolylmethloxy]phenyl]acetic acid] gave a melting point of 128 to 129 °C. Further, the pEC50 in series [1] is 7.21.

`COc1ccc(COc2cccc(CC(=O)O)c2)cc1OCc1nc(-c2ccccc2)oc1C` [Example 132, 3-[4-methoxy-3-[(2-phenyl-5-methyl-4-oxazolyl)methoxy]benzyloxy]phenylacetic acid] displayed a melting point of 114 to 115 °C. The same compound had a pEC50 in series [1] of 6.96.

`Cc1nn(-c2ccccn2)cc1COc1ccc(COc2ncccc2CC(=O)O)cc1` [Example 126, 2-[2-[4-[[3-methyl-1-(2-pyridyl)-1H-pyrazol-4-yl]methoxy]benzyloxy]-3-pyridyl]acetic acid]: the melting point was 150 to 151 °C. Moreover, the pEC50 in series [1] was 5.77.

`CCOc1cc(OCc2ccc(OCc3nc(-c4ccccc4)oc3C)cc2)ccc1CCC(=O)O` [Example 66, 3-[2-ethoxy-4-[4-[(5-methyl-2-phenyl-4-oxazolyl)methoxy]benzyloxy]phenyl]propionic acid] showed a melting point of 135 to 136 °C. In series [1], this compound showed a negative-log EC50 (pEC50) of 6.03.

In series [1], `Cc1oc(-c2ccccc2)nc1CN(C(=O)OC(C)(C)C)c1ccc(COc2ccccc2CC(=O)O)cc1` [Example 60, 2-[2-[4-[(t-butoxycarbonyl)[(5-methyl-2-phenyl-4-oxazolyl)methyl]amino]benzyloxy]phenyl]acetic acid] had a negative-log EC50 (pEC50) of 8.21.

As for `Cc1oc(-c2ccco2)nc1COc1ccc(COc2ccccc2CC(=O)O)cn1` [Example 124], the melting point lay within 119 to 120 °C. The compound also showed a pEC50 in series [1] of 7.38.

`CCOc1cc(OCc2cccc(OCc3nc(-c4ccccc4)oc3C)c2)ccc1CCC(=O)O` [Example 71, 3-[2-ethoxy-4-[3-[(5-methyl-2-phenyl-4-oxazolyl)methoxy]benzyloxy]phenyl]propionic acid] displayed a melting point of 122 to 123 °C. The same compound gave a negative-log EC50 (pEC50) in series [1] of 6.48.

For `Cc1oc(-c2ccccc2)nc1CCc1nc(COc2ccccc2CC(=O)O)co1` [Example 99, 2-[2-[[2-[2-(5-methyl-2-phenyl-4-oxazolyl)ethyl]-4-oxazolyl]methoxy]phenyl]acetic acid], the melting point was in the range of 109 to 110 °C. The negative-log EC50 (pEC50) in series [1] was 6.80.

Usually pEC50 stands for −log10 of the EC50, conventionally taken in molar units. Read a low pEC50 as a high EC50. One may read the melting point as the temperature of the solid-liquid transition.
